Source: patent US7329518B2, “Enzyme for producing optically active pyridineethanol derivatives” (Kaneka Corporation, priority 1999, dated 2008)

B1: FPDH: purified NADH-dependent enzyme from Candida maris IFO 10003 reducing 5-acetylfuro[2,3-c]pyridine to the (R)-alcohol; SEQ ID NO:1 (protein, listed as Candida maris)
chain: MSYNFANKVLIVTGGLSGIGLAVAKKFLQLGAKVTISDISATEKYNTVVGEFKTEGIDVKNVQYIQADASKEADNEKLISETLSAFGDLDYVCANAGIATFTQTTDISYDVWRKVTSINLDGVFMLDKLAAQYFLSKNKPGAIVNMGSIHSYVAAPGLSHYGAAKGGLKLLTQTMALEYAAKGIRVNSVNPGYIKTPLLDICPKEHMDYLITQHPIGRLGKPEEIASAVAFLCSDEATFINGISLLVDGGYTAR

test system: FPDH; experiment: Oxidation activity of FPDH against various compounds as substrates; assay type: biochemical, Candida maris IFO 10003; details: substrate 1 mM; 5-(1-(R)-hydroxyethyl)furo[2,3-c]pyridine = 100%; 0.25 mM NAD+, pH 8.0, 30° C.
Experimental: Further, FPDH was examined for oxidation activity against various compounds. The oxidation activity was measured by allowing the reaction to proceed at 30° C. for 3 minutes in 3.0 ml of a reaction mixture containing 1 mM substrate, 0.25 mM NAD^+, 0.3% (vol/vol) dimethyl sulfoxide and 0.05 ml of the enzyme solution in 100 mM phosphate buffer (pH 8.0) and measuring the increase in absorbance at the wavelength 340 nm. These conditions were employed as standard reaction conditions for oxidizing activity substrate measurement. The enzyme activity reducing 1 μmole of NAD^+ to NADH in one minute under these reaction conditions was defined as 1 unit. The data shown in Table 10 are relative activities with the oxidation activity against the substrate 5-(1-(R)-hydroxyethyl)furo[2,3-c]pyridine being taken as 100%.

| Molecule | Relative activity (oxidation activity) [%] |
| --- | --- |
| CC(O)c1ccccn1 (stereo not shown) [1-(2-Pyridyl)ethanol] | 23 |
| CC(O)c1cccnc1 (stereo not shown) [1-(3-Pyridyl)ethanol] | 110 |
| CC(O)c1ccncc1 (stereo not shown) [1-(4-Pyridyl)ethanol] | 24 |
| C=CC(C)O (stereo not shown) [1-Buten-3-ol] | 261 |
| C=CCC(C)O (stereo not shown) [4-Penten-2-ol] | 172 |
| CC(O)CCc1ccccc1 (stereo not shown) [4-Phenyl-2-butanol] | 219 |
| C[C@@H](O)c1ccccc1 [(R)-1-Phenylethanol] | 225 |
| C[C@@H](O)c1cc2ccoc2cn1 [(R)-5-(1-Hydroxyethyl)furo[2,3-c]pyridine] | 100 |
| CC(C)O [Isopropanol] | 226 |

test system: FPDH; experiment: Optimal temperature and optimal pH for the activity of FPDH; assay type: biochemical, Candida maris IFO 10003; details: pH varied 3.5 to 9.0; acetate, phosphate and Tris-hydrochloride buffer
Experimental: Hereafter, the reducing activity was measured by allowing the reaction to proceed at 30° C. for 3 minutes in 3.0 ml of a reaction mixture containing 1 mM 5-acetylfuro[2,3-c]pyridine (substrate), 0.25 mM NADH, 0.3% (vol/vol) dimethyl sulfoxide and 0.05 ml of the enzyme solution in 100 mM phosphate buffer (pH 6.5) and measuring the decrease in absorbance at the wavelength 340 nm. These conditions were employed as standard reaction conditions for reducing activity measurement. The enzyme activity oxidizing 1 μmole of NADH to NAD^+ in one minute under these reaction conditions was defined as 1 unit.
Activity measurements were conducted under the standard reaction conditions for reducing activity measurement as described in Example 14 except that the temperature alone was varied from 20 to 80° C.
Activity measurements were conducted under the standard reaction conditions for reducing activity measurement as described in Example 14 while varying the pH within the range of 3.5 to 9.0 using acetate buffer, phosphate buffer and Tris-hydrochloride buffer as the buffer solution.

| Molecule | Optimal pH |
| --- | --- |
| B1 | 5.0-6.0 |
